# Reference: US20260022143A1, “Cyclic Peptide Inhibitors of IL-23” (JANSSEN PHARMACEUTICA NV, priority 2022, published 2026)
# pIC50: −log10 of the molar value. Starred links: 1 amine or outer side, 2 acyl side, 3 side chain; linkers in the order of their positions; H or OH if unused. Positions of bridges follow the written chain, without caps; N, C: chain ends. Non-standard residues stand in square brackets, D forms with d. Residues, ends and D or L forms follow the SMILES beside them. *: point of attachment. Me3N+CH2CH2(OCH2CH2)4CO = C[N+](C)(C)CCOCCOCCOCCOCCC(=O)*; Me3N+(CH2)2O(CH2)2O(CH2)2CO = C[N+](C)(C)CCOCCOCCC(=O)*; Trp(7-Me) = Cc1cccc2c(C[C@H](N)C(=O)O)c[nH]c12; Decanoyl(3,6,9-trioxa) = COCCOCCOCC(=O)*; X1 = CN(CC[C@H](N[*:1])C(=O)[*:2])[*:3]; 2Nal = N[C@@H](Cc1ccc2ccccc2c1)C(=O)O; AEF = NCCOc1ccc(C[C@H](N)C(=O)O)cc1; X19 = C[N+](C)(C)C[C@@H](CC(=O)O)N*; X24 = C[N+](C)(CCN[*:1])CC(=O)[*:2]; 3Pal = N[C@@H](Cc1cccnc1)C(=O)O; N(CH2CH2)2CF2 = FC1(F)CCN(*)CC1; X7 = COCCOCCOCCOCCOCCOCCC(=O)*; X5 = C[N+](C)(C)CCOCCOCC(=O)*; Pen = CC(C)(S)[C@H](N)C(=O)O; X55 = OC1(C(F)(F)F)CCN(*)CC1; Thp = NC1(C(=O)O)CCOCC1; Aib = CC(C)(N)C(=O)O; Sar = CNCC(=O)O
# How the values were obtained:
# [1] = Exposed Polar Surface Area (EPSA); format: physicochemical; conditions: SFC on Chirex 3014 column; sample 1 mM DMSO stock; read-out: EPSA
# Method in brief: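 Compounds, as 1 mM DMSO stock, were injected in duplicate onto an SFC Chirex 3014 column at 35 °C and eluted with a CO2/methanol (20 mM ammonium formate) gradient. EPSA values in Å^2 were derived from retention times using a linear fit to eight calibration standards, reinjected every 20 compounds.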
# IL-23R = molecular target: T1, IL-23R (Homo sapiens, UniProt Q5VWK5); test: IL23R Reporter Assay; format: cell-based; conditions: HEK293 cells containing IL-23R, IL-12RP1 and STAT-inducible firefly luciferase reporter; 10 ng/mL IL-23 (EC90); 5 h at 37° C.; read-out: IL23R Reporter Assay
# T1 construct: host or cells: HEK293
# T1 sequence (Q5VWK5 24-629): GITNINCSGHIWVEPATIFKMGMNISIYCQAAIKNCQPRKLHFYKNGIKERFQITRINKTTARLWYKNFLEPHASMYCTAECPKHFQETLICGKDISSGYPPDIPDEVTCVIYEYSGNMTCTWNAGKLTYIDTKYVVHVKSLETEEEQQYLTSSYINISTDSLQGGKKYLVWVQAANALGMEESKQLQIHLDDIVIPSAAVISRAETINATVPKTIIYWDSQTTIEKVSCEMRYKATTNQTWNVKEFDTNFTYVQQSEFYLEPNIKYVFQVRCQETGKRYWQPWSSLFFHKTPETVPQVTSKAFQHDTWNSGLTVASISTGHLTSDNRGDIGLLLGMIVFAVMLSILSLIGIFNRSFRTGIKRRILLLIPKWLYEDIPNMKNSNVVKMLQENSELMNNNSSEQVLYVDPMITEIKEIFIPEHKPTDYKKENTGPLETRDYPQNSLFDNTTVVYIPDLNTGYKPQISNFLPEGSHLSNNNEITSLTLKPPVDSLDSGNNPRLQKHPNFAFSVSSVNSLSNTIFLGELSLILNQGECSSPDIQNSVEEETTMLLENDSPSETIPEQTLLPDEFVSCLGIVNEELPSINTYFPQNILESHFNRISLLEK
Compound,EPSA [1] [A^2],pIC50 (IL-23R)
CC(=O)NCCCC[C@@H]1NC(=O)[C@H](Cc2c[nH]c3c(C)cccc23)NC(=O)[C@H]([C@@H](C)O)NC(=O)[C@H](CC(N)=O)NC(=O)[C@@H](NC(=O)[C@@H](CCC(=O)N[C@H](CC(=O)O)C[N+](C)(C)C)NC(C)=O)C(C)(C)SSC(C)(C)[C@@H](C(=O)N[C@@H](Cc2ccc(OCCN)cc2)C(=O)N[C@@H](Cc2ccc3ccccc3c2)C(=O)NC2(C(=O)N[C@@H](CCCCNC(C)=O)C(=O)N[C@@H](CC(N)=O)C(=O)N[C@@H](Cc3cccnc3)C(=O)N(C)CC(N)=O)CCOCC2)NC1=O [compound 125] (Ac-[dE](X19)[Pen]NT[Trp(7-Me)]K(Ac)[Pen][AEF][2Nal][Thp]K(Ac)N[3Pal][Sar]-NH2; disulfide 2-7 (inferred)),181,8.70
"CC(=O)N[C@@H]1C(=O)N[C@@H](CC(=O)N(C)C)C(=O)N[C@@H]([C@@H](C)O)C(=O)N[C@@H](Cc2c[nH]c3c(C)cccc23)C(=O)N[C@@H](CCN(C)C(=O)COCCOCC[N+](C)(C)C)C(=O)N[C@H](C(=O)N[C@@H](Cc2ccc(OCCN)cc2)C(=O)N[C@@H](Cc2ccc3ccccc3c2)C(=O)NC2(C(=O)N[C@@H](CCC(=O)O)C(=O)N[C@@H](CC(N)=O)C(=O)N[C@@H](Cc3cccnc3)C(=O)N(C)CC(=O)N(C)C)CCOCC2)C(C)(C)SSC1(C)C [compound 130, MeCO-Pen(3)-N(N(Me)2)-T-7MeW-Dab(NMecPEG2a)-Pen(3)-AEF-2Nal-THP-E-N-3Pya-Sar-CON(Me)2] (Ac-[Pen]D(NMe2)T[Trp(7-Me)][X1](X5)[Pen][AEF][2Nal][Thp]EN[3Pal][Sar]-NMe2; disulfide 1-6)",164,8.47
CC(=O)NCCCC[C@@H]1NC(=O)[C@H](Cc2c[nH]c3c(C)cccc23)NC(=O)[C@H]([C@@H](C)O)NC(=O)[C@H](CC(N)=O)NC(=O)[C@@H](NC(C)=O)C(C)(C)SSC(C)(C)[C@@H](C(=O)N[C@@H](Cc2ccc(OCCN)cc2)C(=O)N[C@@H](Cc2ccc3ccccc3c2)C(=O)NC2(C(=O)N[C@@H](CCC(=O)O)C(=O)N[C@@H](CC(N)=O)C(=O)N[C@@H](Cc3cccnc3)C(=O)N(C)CC(=O)N3CCC(O)(C(F)(F)F)CC3)CCOCC2)NC1=O [compound 135] (Ac-[Pen]NT[Trp(7-Me)]K(Ac)[Pen][AEF][2Nal][Thp]EN[3Pal][Sar]-X55; disulfide 1-6 (inferred)),171,8.43
CC(=O)NCCCC[C@@H]1NC(=O)[C@H](Cc2c[nH]c3c(C)cccc23)NC(=O)[C@H]([C@@H](C)O)NC(=O)[C@H](CC(N)=O)NC(=O)[C@@H](NC(C)=O)C(C)(C)SSC(C)(C)[C@@H](C(=O)N[C@@H](Cc2ccc(OCCN)cc2)C(=O)N[C@@H](Cc2ccc3ccccc3c2)C(=O)NC2(C(=O)N[C@@H](CCC(=O)O)C(=O)N[C@@H](CC(N)=O)C(=O)N[C@@H](Cc3cccnc3)C(=O)N(C)CC(=O)N3CCC(F)(F)CC3)CCOCC2)NC1=O [compound 136] (Ac-[Pen]NT[Trp(7-Me)]K(Ac)[Pen][AEF][2Nal][Thp]EN[3Pal][Sar]-{N(CH2CH2)2CF2}; disulfide 1-6 (inferred)),169,8.59
"Cc1cccc2c(C[C@@H]3NC(=O)[C@H]([C@@H](C)O)NC(=O)[C@H](CC(=O)N(C)C)NC(=O)[C@@H](NC(=O)CCOCCOCC[N+](C)(C)C)C(C)(C)SSC(C)(C)[C@@H](C(=O)N[C@@H](Cc4ccc(OCCN)cc4)C(=O)N[C@@H](Cc4ccc5ccccc5c4)C(=O)NC4(C(=O)N[C@@H](CCC(=O)N(C)C)C(=O)N[C@@H](CC(N)=O)C(=O)N[C@@H](Cc5cccnc5)C(=O)N(C)CC(=O)N(C)C)CCOCC4)NC(=O)[C@H](CCC(=O)N(C)C)NC3=O)c[nH]c12 [compound 139, cPEG3aCO-Pen(3)-N(N(Me)2)-T-7MeW-Q(N(Me)2)-Pen(3)-AEF-2Nal-THP-Q(N(Me)2)-N-3Pya-Sar-CON(Me)2] ({Me3N+(CH2)2O(CH2)2O(CH2)2CO}-[Pen]D(NMe2)T[Trp(7-Me)]E(NMe2)[Pen][AEF][2Nal][Thp]E(NMe2)N[3Pal][Sar]-NMe2; disulfide 1-6)",150,8.47
"COCCOCCOCCOCCOCCOCCC(=O)N(C)CC[C@@H]1NC(=O)[C@H](Cc2c[nH]c3c(C)cccc23)NC(=O)[C@H]([C@@H](C)O)NC(=O)[C@H](CC(=O)N(C)C)NC(=O)[C@@H](NC(C)=O)C(C)(C)SSC(C)(C)[C@@H](C(=O)N[C@@H](Cc2ccc(OCCN)cc2)C(=O)N[C@@H](Cc2ccc3ccccc3c2)C(=O)NC2(C(=O)N[C@@H](CCN(C)C(=O)CCOCCOCCOCCOCCOCCOC)C(=O)N[C@@H](CC(N)=O)C(=O)N[C@@H](Cc3cccnc3)C(=O)N(C)CC(=O)N(C)C)CCOCC2)NC1=O [compound 141, MeCO-Pen(3)-N(N(Me)2)-T-7MeW-Dab(NMeCOmPEG6)-Pen(3)-AEF-2Nal-THP-Dab(NMeCOmPEG6)-N-3Pya-Sar-CON(Me)2] (Ac-[Pen]D(NMe2)T[Trp(7-Me)][X1](X7)[Pen][AEF][2Nal][Thp][X1](X7)N[3Pal][Sar]-NMe2; disulfide 1-6)",140,8.24
"Cc1cccc2c(C[C@@H]3NC(=O)[C@H]([C@@H](C)O)NC(=O)[C@H](CC(=O)N(C)C)NC(=O)[C@@H](NC(=O)CCOCCOCC[N+](C)(C)C)C(C)(C)SSC(C)(C)[C@@H](C(=O)N[C@@H](Cc4ccc(OCCN)cc4)C(=O)N[C@@H](Cc4ccc5ccccc5c4)C(=O)NC4(C(=O)NC(C)(C)C(=O)N[C@@H](CC(N)=O)C(=O)N[C@@H](Cc5cccnc5)C(=O)N(C)CC(=O)N(C)C)CCOCC4)NC(=O)C(C)(C)NC3=O)c[nH]c12 [compound 142, cPEG3aCO-Pen(3)-N(N(Me)2)-T-7MeW-AIB-Pen(3)-AEF-2Nal-THP-AIB-N-3Pya-Sar-CON(Me)2] ({Me3N+(CH2)2O(CH2)2O(CH2)2CO}-[Pen]D(NMe2)T[Trp(7-Me)][Aib][Pen][AEF][2Nal][Thp][Aib]N[3Pal][Sar]-NMe2; disulfide 1-6)",166,8.18
"COCCOCCOCCOCCOCCOCCC(=O)NCC[N+](C)(C)CC(=O)N[C@@H]1C(=O)N[C@@H](CC(=O)N(C)C)C(=O)N[C@@H]([C@@H](C)O)C(=O)N[C@@H](Cc2c[nH]c3c(C)cccc23)C(=O)N[C@@H](CCN(C)C(=O)CCOCCOCCOCCOCC[N+](C)(C)C)C(=O)N[C@H](C(=O)N[C@@H](Cc2ccc(OCCN)cc2)C(=O)N[C@@H](Cc2ccc3ccccc3c2)C(=O)NC2(C(=O)N[C@@H](CCC(=O)O)C(=O)N[C@@H](CC(N)=O)C(=O)N[C@@H](Cc3cccnc3)C(=O)N(C)CC(=O)N(C)C)CCOCC2)C(C)(C)SSC1(C)C [compound 143, mPEG6CO-SP6-Pen(3)-N(N(Me)2)-T-7MeW-Dab(NMecPEG5a)-Pen(3)-AEF-2Nal-THP-E-N-3Pya-Sar-CON(Me)2] (X7-[X24][Pen]D(NMe2)T[Trp(7-Me)][X1](Me3N+CH2CH2(OCH2CH2)4CO)[Pen][AEF][2Nal][Thp]EN[3Pal][Sar]-NMe2; disulfide 2-7 (inferred))",161,8.19
"COCCOCCOCC(=O)NCC[N+](C)(C)CC(=O)N[C@@H]1C(=O)N[C@@H](CC(=O)N(C)C)C(=O)N[C@@H]([C@@H](C)O)C(=O)N[C@@H](Cc2c[nH]c3c(C)cccc23)C(=O)N[C@@H](CCC(=O)N(C)C)C(=O)N[C@H](C(=O)N[C@@H](Cc2ccc(OCCN)cc2)C(=O)N[C@@H](Cc2ccc3ccccc3c2)C(=O)NC2(C(=O)N[C@@H](CCC(=O)N(C)C)C(=O)N[C@@H](CC(N)=O)C(=O)N[C@@H](Cc3cccnc3)C(=O)N(C)CC(N)=O)CCOCC2)C(C)(C)SSC1(C)C [compound 146, mPEG3CO-SP6-Pen(3)-N(N(Me)2)-T-7MeW-Q(N(Me)2)-Pen(3)-AEF-2Nal-THP-Q(N(Me)2)-N-3Pya-Sar-CONH2] ({Decanoyl(3,6,9-trioxa)}-[X24][Pen]D(NMe2)T[Trp(7-Me)]E(NMe2)[Pen][AEF][2Nal][Thp]E(NMe2)N[3Pal][Sar]-NH2; disulfide 2-7)",152,8.42
"Cc1cccc2c(C[C@@H]3NC(=O)[C@H]([C@@H](C)O)NC(=O)[C@H](CC(=O)N(C)C)NC(=O)[C@@H](NC(=O)CCOCCOCC[N+](C)(C)C)C(C)(C)SSC(C)(C)[C@@H](C(=O)N[C@@H](Cc4ccc(OCCN)cc4)C(=O)N[C@@H](Cc4ccc5ccccc5c4)C(=O)NC4(C(=O)N[C@@H](CCC(=O)N(C)C)C(=O)N[C@@H](CC(N)=O)C(=O)N[C@@H](Cc5cccnc5)C(=O)N(C)CC(N)=O)CCOCC4)NC(=O)[C@H](CCC(=O)N(C)C)NC3=O)c[nH]c12 [compound 147, cPEG3aCO-Pen(3)-N(N(Me)2)-T-7MeW-Q(N(Me)2)-Pen(3)-AEF-2Nal-THP-Q(N(Me)2)-N-3Pya-Sar-CONH2] ({Me3N+(CH2)2O(CH2)2O(CH2)2CO}-[Pen]D(NMe2)T[Trp(7-Me)]E(NMe2)[Pen][AEF][2Nal][Thp]E(NMe2)N[3Pal][Sar]-NH2; disulfide 1-6)",156,8.42
